Like-named read-outs stand apart in the source and are kept apart here.

Data set [1] has as its target P-gp (Homo sapiens, UniProt P08183). Briefly: Bidirectional transport across MDCKII-MDR1 cell monolayers (P-gp substrate assessment).
Description: MDCKII-Mock and MDCKII-MDR1 cells were given as a gift by Fuji Biomedix Co., Ltd. (Japan) and cultured in DMEM supplemented with 10% FBS and 1% antibiotic (10,000 U/mL penicillin and 10 mg/mL streptomycin). Caco-2 cell line, the human epithelial cell used in this assay, was purchased from the Cell Bank of the Chinese Academy of Sciences (Shanghai, China) and maintained between 30 and 45 passages. It was cultured according to the previous report (Guo et al. [2018]; Xiang et al. [2020]). Briefly, the Caco-2 cells were cultured in DMEM supplemented with 10% FBS, 1% NEAA, and 1% antibiotic (10,000 U/mL penicillin and 10 mg/mL streptomycin). All cells were maintained in a 5% CO2 atmosphere and 90% relative humidity at 37 °C.
For transport studies, the MDCKII-Mock, MDCKII-MDR1, and Caco-2 cells were seeded at a density of 2 × 10^5 cells/mL on Costar Transwell inserts (1.12 cm^2 surface, polycarbonate, 12 mm diameter, 0.4 µm pore size). MDCKII-Mock and MDCKII-MDR1 cells were cultured for 5–7 days in medium, for the first four days, the medium was replaced freshly every two days, and then daily. The Caco-2 cells were cultured for 19–21 days in the medium. For the first 2 weeks, the medium was replaced freshly every two days, and then daily. […] The transepithelial electrical resistance (TEER) of the monolayer cells was measured by Millcell ERS-2 (Millipore, USA), and only the monolayer with TEER exceeding 150 Ω·m^2 (MDCKII-Mock and MDCKII-MDR1 cells) and 400 Ω·m^2 (Caco-2 cells) were used for the transport experiment. The membrane integrity and transport function of MDCKII-Mock, MDCKII-MDR1, and Caco-2 cell monolayers were further verified with Lucifer yellow and Rhodamine-123. The qualified monolayers were used for transport studies.
Before the transport studies, the media in both chambers of the transwell were replaced by warm (37 °C) Hank’s balanced salt solution (HBSS), and then the MDCKII-Mock, MDCKII-MDR1, and Caco-2 cell monolayers were incubated at 37 °C and 5% CO2 for 20 min. […] Our transport studies included absorptive direction transport from the apical (AP) side to the basolateral (BL) side and secretory direction transport from the BL side to the AP side. […] After administration, the transwell plate was placed in a thermostatic oscillator shaking at 60 rpm and 37 °C. At 10, 20, 40 and 60 min, respectively, 50 µL incubating sample aliquot was collected from the receiver chamber and immediately replaced by the same volume of fresh HBSS (37 °C). In addition, the membrane integrity of MDCKII-Mock, MDCKII-MDR1, and Caco-2 cell monolayers were evaluated with Lucifer yellow (30 µM) and TEER value, and the efflux activity of P-gp was validated using a typical P-gp substrate rhodamine-123 (10 µM).
The parameters Papp, RE, and NRE were calculated using the following equation: Papp=(ΔQ/Δt)×[1/(A×C0)]
Data set [2] in a line: Bidirectional transport across MDCKII-Mock cell monolayers. Format: in vitro ADME, canine. As to conditions: dog, MDCK, MDCKII-Mock, 20 min; for efflux ratio at 20 min: read-out: RE (efflux ratio). The protocol:
(§1) The qualified monolayers were used for transport studies. […] Each experiment was carried out in triplicate.

Data set [3] deals with P-gp. In words: Bidirectional transport across Caco-2 cell monolayer. Format: in vitro ADME, human. The note with it: human, Caco-2, rhodamine-123 10 µM. The protocol: as §1
In general terms: Caco-2 monolayers are a common model of the intestinal barrier.

The conditions of data set [4]: rats; ref Wang et al. [1994]; cited from earlier work.
The test system of data set [5] is MDCKII-Mock cell monolayers. Briefly: Bidirectional transport across MDCKII-Mock cell monolayers. Format: in vitro ADME, canine. The note with it: MDCKII-Mock monolayer integrity check, Lucifer yellow 30 µM. The protocol:
as §1

In data set [6] the test system is Caco-2 cell monolayer. In words: Bidirectional transport across Caco-2 cell monolayer. In kind it is in vitro ADME, human. The note with it: Caco-2 monolayer integrity check, Lucifer yellow 30 µM. The protocol:
as §1

Where [7] appears, read: pH 7.4, with verapamil 50 µM, + 50 µM verapamil.

Chain of P-gp (Homo sapiens, UniProt P08183) (P08183 whole entry): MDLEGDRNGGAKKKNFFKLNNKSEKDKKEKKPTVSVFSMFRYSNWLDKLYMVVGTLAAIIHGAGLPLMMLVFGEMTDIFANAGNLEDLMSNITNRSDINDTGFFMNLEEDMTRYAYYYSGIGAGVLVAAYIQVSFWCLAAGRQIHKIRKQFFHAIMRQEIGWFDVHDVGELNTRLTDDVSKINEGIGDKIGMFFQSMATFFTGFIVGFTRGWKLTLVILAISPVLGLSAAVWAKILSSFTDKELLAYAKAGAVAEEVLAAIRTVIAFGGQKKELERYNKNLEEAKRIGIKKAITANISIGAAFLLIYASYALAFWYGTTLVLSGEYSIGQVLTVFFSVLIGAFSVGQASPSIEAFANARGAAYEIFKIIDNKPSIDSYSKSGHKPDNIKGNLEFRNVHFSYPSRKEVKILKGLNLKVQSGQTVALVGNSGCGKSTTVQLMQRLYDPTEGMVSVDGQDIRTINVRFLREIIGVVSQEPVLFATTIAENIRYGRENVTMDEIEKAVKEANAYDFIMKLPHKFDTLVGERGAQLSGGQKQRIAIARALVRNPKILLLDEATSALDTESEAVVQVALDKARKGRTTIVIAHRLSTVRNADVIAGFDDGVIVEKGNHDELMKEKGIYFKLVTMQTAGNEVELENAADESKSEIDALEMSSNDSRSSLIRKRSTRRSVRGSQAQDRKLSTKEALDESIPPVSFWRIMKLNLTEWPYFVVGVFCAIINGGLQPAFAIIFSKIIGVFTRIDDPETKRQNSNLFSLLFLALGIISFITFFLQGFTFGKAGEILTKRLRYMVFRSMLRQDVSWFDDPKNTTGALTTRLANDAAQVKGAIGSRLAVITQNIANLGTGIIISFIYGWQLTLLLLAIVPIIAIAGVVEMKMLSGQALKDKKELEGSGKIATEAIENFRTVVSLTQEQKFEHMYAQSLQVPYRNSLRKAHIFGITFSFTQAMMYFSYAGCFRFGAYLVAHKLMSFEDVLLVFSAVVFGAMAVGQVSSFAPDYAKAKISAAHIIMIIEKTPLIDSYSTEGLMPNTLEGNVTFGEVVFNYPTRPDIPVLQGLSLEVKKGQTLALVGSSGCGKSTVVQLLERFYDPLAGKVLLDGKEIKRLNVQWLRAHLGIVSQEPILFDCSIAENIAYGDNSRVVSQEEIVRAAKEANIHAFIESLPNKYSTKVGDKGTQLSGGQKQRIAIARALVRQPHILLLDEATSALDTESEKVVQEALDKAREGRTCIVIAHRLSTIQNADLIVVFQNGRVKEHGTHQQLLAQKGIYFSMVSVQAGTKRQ

In the case of `COC(=O)c1ccccc1-c1c2ccc(=N)cc-2oc2cc(N)ccc12` [Rhodamine 123, rhodamine-123], the Papp A→B (commonly how fast a substance crosses the layer from the apical side) at 20 min came out at 0.193 ± 0.0535 ×10⁻⁶ cm/s in data set [1] (dog, MDCK-MDR1, pH 7.4); 0.409 ± 0.0686 ×10⁻⁶ cm/s in data set [2] (setting [7]); 0.378 ± 0.0314 ×10⁻⁶ cm/s in data set [2] (pH 7.4, without verapamil). The Papp B→A – broadly, how fast a substance crosses the layer from the basolateral side – at 20 min in data set [1] (dog, MDCK-MDR1, pH 7.4) amounted to 1.78 ± 0.293 ×10⁻⁶ cm/s; in data set [2] (setting [7]) it was 0.538 ± 0.0642 ×10⁻⁶ cm/s; in data set [2] (pH 7.4, without verapamil) it was 0.481 ± 0.0998 ×10⁻⁶ cm/s. Also, the efflux ratio at 20 min is 9.2 in data set [1] (dog, MDCK-MDR1, pH 7.4); 1.32 in data set [2] (setting [7]); 1.27 in data set [2] (pH 7.4, without verapamil). The efflux ratio at 10 µM turned out to be 4.86 in data set [3] (pH 7.4, with verapamil 50 µM, verapamil present (50 µM)) and 15.6 in data set [3] (pH 7.4, without verapamil).

Turning to `CC1(C)[C@@H](O[C@H]2O[C@H](C(=O)O)[C@@H](O)[C@H](O)[C@H]2O[C@@H]2O[C@H](C(=O)O)[C@@H](O)[C@H](O)[C@H]2O)CC[C@]2(C)[C@H]3C(=O)C=C4[C@@H]5C[C@@](C)(C(=O)O)CC[C@]5(C)CC[C@@]4(C)[C@]3(C)CC[C@@H]12` [glycyrrhizin], the bioavailability (commonly the share of a dose that reaches the circulation, judged against a reference dose that is usually intravenous) in data set [4] is on record as 4.0%.

On to Lucifer yellow, for which the “Papp(AP→BL)” value in data set [1] (MDCKII-MDR1 monolayer integrity check, Lucifer yellow 30 µM) was 0.432 ± 0.0468 × 10^−6 cm/s; in data set [5] it was 0.463 ± 0.0568 × 10^−6 cm/s; in data set [6] it was 0.268 ± 0.0346 × 10^−6 cm/s.
